Ends that are not written are not given here.

As usually defined, the EC50 is the concentration at which the effect is half-maximal. A high value points to a need for much substance.

Assay [1] concerns the target C. glabrata mating receptor (Cg.Ste2) (Candida glabrata, UniProt Q6FLY8). Nature of the assay: cell-based.
The target of the next assay is Le.Ste2 mating receptor (Lodderomyces elongisporus, UniProt A5E1D9). Nature of the assay: cell-based.
Sequence of Le.Ste2 mating receptor (A5E1D9 entry or part of it): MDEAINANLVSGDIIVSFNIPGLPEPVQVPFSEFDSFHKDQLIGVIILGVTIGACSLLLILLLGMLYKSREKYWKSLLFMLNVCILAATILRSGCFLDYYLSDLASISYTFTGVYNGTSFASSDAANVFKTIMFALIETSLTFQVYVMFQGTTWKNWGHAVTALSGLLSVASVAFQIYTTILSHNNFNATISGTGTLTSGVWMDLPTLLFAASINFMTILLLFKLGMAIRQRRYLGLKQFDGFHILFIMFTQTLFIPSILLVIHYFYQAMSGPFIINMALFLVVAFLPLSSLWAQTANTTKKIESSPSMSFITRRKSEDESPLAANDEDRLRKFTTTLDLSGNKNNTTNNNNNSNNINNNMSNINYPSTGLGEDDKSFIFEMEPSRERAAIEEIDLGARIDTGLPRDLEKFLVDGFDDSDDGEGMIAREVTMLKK

Sequence of C. glabrata mating receptor (Cg.Ste2) (Q6FLY8 entry or part of it): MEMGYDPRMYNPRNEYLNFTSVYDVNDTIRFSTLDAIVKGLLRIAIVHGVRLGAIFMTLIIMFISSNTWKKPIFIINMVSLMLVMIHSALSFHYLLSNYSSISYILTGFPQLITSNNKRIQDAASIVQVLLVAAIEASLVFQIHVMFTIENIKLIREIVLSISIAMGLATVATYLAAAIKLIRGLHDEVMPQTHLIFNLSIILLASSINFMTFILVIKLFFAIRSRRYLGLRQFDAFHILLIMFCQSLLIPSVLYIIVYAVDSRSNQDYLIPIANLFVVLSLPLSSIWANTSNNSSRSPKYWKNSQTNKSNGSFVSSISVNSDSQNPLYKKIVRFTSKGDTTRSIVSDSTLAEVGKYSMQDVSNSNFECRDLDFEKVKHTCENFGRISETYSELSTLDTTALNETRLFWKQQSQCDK

Turning to WHWVRLRKGQGLF [Cg – Candida glabrata], in assay [1], a half-maximal response (EC50) required 14 µM.
Take “WMWTRYGRFSPV [Le – Lodderomyces elongisporus]”: the 50% effective concentration (EC50) at Le.Ste2 mating receptor was 0.054 µM.

Source of the values: paper PMC5489263 (Science Advances, 2017).
